Measured values reported in publication PMC11908749 (Chemistry & Biodiversity, 2025).

Legend:
Format in all cases: cell-based
[1] = system: U‐251 (human glioblastoma cell line); experiment: SRB cytotoxicity, U-251 cells; conditions: read-out: IC50 U‐251, non-linear regression
[2] = system: MCF‐7 (human mammary adenocarcinoma); experiment: SRB cytotoxicity, MCF-7 cells; conditions: read-out: IC50 MCF‐7, non-linear regression
[3] = system: SK‐LU‐1 (human lung adenocarcinoma); experiment: SRB cytotoxicity, SK-LU-1 cells; conditions: read-out: IC50 SK‐LU‐1, non-linear regression

curcumin
IC50 [1]: 20.5 ± 1.7 µM
IC50 [2]: 18.4 ± 0.9 µM
IC50 [3]: 12.9 ± 0.7 µM
